Results as given in US10214542B2, “Modified macrocyclic compounds” (BAYER PHARMA AKTIENGESELLSCHAFT, priority 2015, dated 2019).
Values joined by “and” are separate entries in the source; they are usually repeats but may differ in a detail not shown here. Equal entries are not always repeated. Where two headings read alike, the source gives them in different places. Marks after values point to notes of the source that are not given here. Values belong to the molecule of their own block, whether it stands above or below them.

How the values were obtained:
[1] = biological target: T1, human PTEFb (CDK9/Cyclin T1) (Homo sapiens, UniProt P50750); assay: Surface Plasmon Resonance PTEFb (Method 8); assay type: binding; conditions: 25° C., experimental parameters A-G per value; for Target resident time: 1/koff; for koff: read-out: Dissociation rate constant koff
T1 construct: purchased ProQinase, Freiburg, Germany
Description: 8. Surface Plasmon Resonance PTEFb
The ability of the compounds according to the invention to bind human PTEFb may be determined using surface plasmon resonance (SPR). KD values and koff values may be measured using a Biacore® T200 instrument (GE Healthcare, Uppsala, Sweden).
For SPR measurements, recombinant human PTEFb (CDK9/Cyclin T1 recombinant human active protein kinase purchased from ProQinase, Freiburg, Germany) is immobilized using standard amine coupling (Johnsson B et al, Anal Biochem. 1991 Nov. 1; 198(2):268-77). Briefly, carboxymethylated dextran biosensor chips (CM7, GE Healthcare) are activated with N-ethyl-N′-(3-dimethylaminopropyl)-carbodiimide hydrochloride (EDC) and N-hydroxysuccinimide (NHS) according to the supplier's instructions. Human PTEFb is diluted in 1×HBS-EP+ (GE Healthcare) and injected on the activated chip surface. Subsequently, a 1:1 solution of 1 M ethanolamine-HCl (GE Healthcare) and 1×HBS-EP is injected to block unreacted groups, resulting in approximately 4000 response units (RU) of immobilized protein. A reference surface is generated by treatment with NHS-EDC and ethanolamine-HCl. Compounds are dissolved in 100% dimethylsulfoxide (DMSO, Sigma-Aldrich, Germany) to a concentration of 10 mM and subsequently diluted in running buffer (1×HBS-EP+ pH 7.4 [generated from HBS-EP+ Buffer 10× (GE Healthcare): 0.1 M HEPES, 1.5 M NaCl, 30 mM EDTA and 0.5% v/v Surfactant P20], 1% v/v DMSO). For kinetic measurements, serial dilutions of compound (0.82 nM up to 2 μM) are injected over immobilized protein. Binding kinetics is measured at 25° C. with a flow rate of 50 μl/min in running buffer. Compound concentrations are injected for 60 s followed by a dissociation time of 1800 s. The resulting sensorgrams are double-referenced against the reference surface as well as against blank injections.
The double-referenced sensorgrams are fit to a simple reversible Langmuir 1:1 reaction mechanism as implemented in the Biacore® T200 evaluation software 2.0 (GE Healthcare). In cases were full compound dissociation has not occurred at the end of the dissociation phase, the Rmax parameter (response at saturation) is fit as local variable. In all other cases, Rmax is fit as global variable.
Slight variations of experimental parameters are indicated by letters (A-G): […]

[2] = biological target: T1, human PTEFb (CDK9/Cyclin T1); assay: Surface Plasmon Resonance PTEFb (Method 8); assay type: binding; conditions: 37° C., experimental parameters E; for Target resident time: 1/koff; for koff: read-out: Dissociation rate constant koff

T1 sequence (P50750 whole entry): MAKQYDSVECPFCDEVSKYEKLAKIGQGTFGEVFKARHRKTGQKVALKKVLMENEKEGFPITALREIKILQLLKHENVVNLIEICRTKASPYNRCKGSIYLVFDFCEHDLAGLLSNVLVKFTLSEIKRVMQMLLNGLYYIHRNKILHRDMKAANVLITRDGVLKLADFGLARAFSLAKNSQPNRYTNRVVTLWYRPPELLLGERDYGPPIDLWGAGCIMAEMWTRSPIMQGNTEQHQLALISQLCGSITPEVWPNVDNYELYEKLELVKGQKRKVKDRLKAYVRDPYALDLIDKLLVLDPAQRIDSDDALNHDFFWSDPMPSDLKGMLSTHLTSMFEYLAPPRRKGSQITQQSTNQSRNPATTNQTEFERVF
T1 sequence (O60563 whole entry partner): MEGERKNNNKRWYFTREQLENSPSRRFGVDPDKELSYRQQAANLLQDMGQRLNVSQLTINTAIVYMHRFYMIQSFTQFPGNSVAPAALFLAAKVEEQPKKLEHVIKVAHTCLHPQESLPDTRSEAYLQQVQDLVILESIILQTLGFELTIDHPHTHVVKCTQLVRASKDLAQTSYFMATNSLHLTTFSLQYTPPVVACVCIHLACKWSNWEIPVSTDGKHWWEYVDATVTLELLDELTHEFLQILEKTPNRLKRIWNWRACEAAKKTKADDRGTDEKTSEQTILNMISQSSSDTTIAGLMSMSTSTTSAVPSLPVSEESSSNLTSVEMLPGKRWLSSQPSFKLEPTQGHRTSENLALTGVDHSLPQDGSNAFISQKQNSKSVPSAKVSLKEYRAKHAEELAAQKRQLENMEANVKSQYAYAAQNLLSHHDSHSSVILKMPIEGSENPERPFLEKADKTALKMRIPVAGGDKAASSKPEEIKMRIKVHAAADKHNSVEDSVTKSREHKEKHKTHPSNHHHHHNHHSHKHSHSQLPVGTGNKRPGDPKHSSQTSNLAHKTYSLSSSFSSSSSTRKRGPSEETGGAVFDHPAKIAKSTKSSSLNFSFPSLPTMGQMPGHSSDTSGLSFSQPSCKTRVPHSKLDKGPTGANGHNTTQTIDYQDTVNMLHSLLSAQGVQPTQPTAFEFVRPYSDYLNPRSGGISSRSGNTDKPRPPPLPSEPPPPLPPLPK

SMILES: CS(=O)(Cc1cc2nc(c1)Nc1cc(c(F)cn1)-c1ccc(F)cc1OCCCCN2)=NC(=O)OCc1ccccc1 (racemic) [Example 2, (rac)-Benzyl[{[16,20-difluoro-3,4,5,6-tetrahydro-2H,12H-11,7-(azeno)-13,17-(metheno)-1,6,12,14-benzoxatriazacyclononadecin-9-yl]methyl}(methyl)oxido-λ^6-sulfanylidene]carbamate]
Target resident time [1]: 44.9 min and 33.1 min | Dissociation rate constant koff [1]: 0.000504 s⁻¹ | koff [1]: 0.000371 s⁻¹

SMILES: C[S+]([O-])Cc1cc2nc(c1)OCCCCc1cc(F)ccc1-c1cc(ncc1F)N2 (racemic) [Example 5, (rac)-2,18-Difluoro-9-[(methylsulfinyl)methyl]-13,14,15,16-tetrahydro-6H-7,11-(azeno)-5,1-(metheno)-12,4,6-benzoxadiazacyclooctadecine]
Target resident time [1]: 17.2 min | koff [1]: 0.000968 s⁻¹

SMILES: CC(C)(C)OC(=O)N=S(C)(=O)Cc1cc2nc(c1)Nc1cc(c(F)cn1)-c1ccc(F)cc1OCCCN2 (racemic) [Example 7, (rac)-tert-butyl[{[15,19-difluoro-2,3,4,5-tetrahydro-11H-10,6-(azeno)-16,12-(metheno)-1,5,11,13-benzoxatriazacyclooctadecin-8-yl]methyl}(methyl)oxido-λ^6-sulfanylidene]carbamate]
Target resident time [1]: >666* min | koff [1]: < 2.5e-05 s⁻¹

SMILES: CN1CCCCOc2cc(F)ccc2-c2cc(ncc2F)Nc2cc(CS(C)(=N)=O)cc1n2 (racemic) [Example 11, (rac)-16,20-difluoro-6-methyl-9-[(S-methylsulfonimidoyl)methyl]-3,4,5,6-tetrahydro-2H-7,11-(azeno)-17,13-(metheno)-1,6,12,14-benzoxatriazacyclononadecine]
Target resident time [1]: >666* min | koff [1]: < 2.5e-05 s⁻¹

SMILES: C[S+]([O-])Cc1cc2nc(c1)OCCCCCc1cc(F)ccc1-c1cc(ncc1F)N2 (racemic) [Example 19, (rac)-2,19-difluoro-9-[(methylsulfinyl)methyl]-14,15,16,17-tetrahydro-6H,13H-7,11-(azeno)-5,1-(metheno)-12,4,6-benzoxadiazacyclononadecine]
Target resident time [1]: 4.8* min | koff [1]: 0.00345 s⁻¹

SMILES: CS(=N)(=O)Cc1cc2nc(c1)OCCCCCc1cc(F)ccc1-c1cc(ncc1F)N2 (racemic) [Example 20, (rac)-2,19-difluoro-9-[(S-methylsulfonimidoyl)methyl]-14,15,16,17-tetrahydro-6H,13H-7,11-(azeno)-5,1-(metheno)-12,4,6-benzoxadiazacyclononadecine]
Target resident time [1]: 14.7* min | koff [1]: 0.00113 s⁻¹

SMILES: CN1CCCCOc2cc(F)ccc2-c2nc(ncc2F)Nc2cc(CS(C)(=N)=O)cc1c2 (racemic) [Example 23, (rac)-16,20-difluoro-6-methyl-9-[(S-methylsulfonimidoyl)methyl]-3,4,5,6-tetrahydro-2H,12H-13,17-(azeno)-11,7-(metheno)-1,6,12,14-benzoxatriazacyclononadecine]
Target resident time [1]: 87.3* min | koff [1]: 0.000191 s⁻¹

SMILES: CSCc1cc2nc(c1)OCCCCc1cc(F)ccc1-c1cc(ncc1F)N2 [Example 4, 2,18-Difluoro-9-[(methylsulfanyl)methyl]-13,14,15,16-tetrahydro-6H-7,11-(azeno)-5,1-(metheno)-12,4,6-benzoxadiazacyclooctadecine]
Target resident time [1]: 14.6 min | koff [1]: 0.00114 s⁻¹

Results, then the molecule that gave them:

Target resident time [1]: > 666 min and 372.9 min | Dissociation rate constant koff [1]: 4.47e-05 s⁻¹ | koff [1]: < 2.5e-05 s⁻¹
SMILES: CC(C)(C)OC(=O)N=S(C)(=O)Cc1cc2cc(c1)OCCCCNc1cc(F)ccc1-c1nc(ncc1F)N2 (racemic) [Example 15, (rac)-tert-butyl[{[16,20-difluoro-2,3,4,5-tetrahydro-1H,12H-13,17-(azeno)-11,7-(metheno)-6,1,12,14-benzoxatriazacyclononadecin-9-yl]methyl}(methyl)oxido-λ^6-sulfanylidene]carbamate]

Target resident time [2]: 46.3* min | koff [2]: 0.00036 s⁻¹
SMILES: CS(=N)(=O)Cc1cc2cc(c1)OCCCCNc1cc(F)ccc1-c1nc(ncc1F)N2 (racemic) [Example 16, (rac)-16,20-difluoro-9-[(S-methylsulfonimidoyl)methyl]-2,3,4,5-tetrahydro-1H-17,13-(azeno)-7,11-(metheno)-6,1,12,14-benzoxatriazacyclononadecine]

Target resident time [2]: 115.7* min | koff [2]: 0.000144 s⁻¹
SMILES: CN1CCCCNc2cc(F)ccc2-c2nc(ncc2F)Nc2cc(CS(C)(=N)=O)cc1c2.O=CO (racemic) [Example 17, (rac)-16,20-difluoro-6-methyl-9-[(S-methylsulfonimidoyl)methyl]-1,2,3,4,5,6-hexahydro-12H-17,13-(azeno)-11,7-(metheno)-1,6,12,14-benzotetraazacyclononadecine; salt with formic acid]

Target resident time [2]: 17.5* min | koff [2]: 0.000954 s⁻¹
SMILES: CS(=N)(=O)Cc1cc2cc(c1)OCCCCSc1cc(F)ccc1-c1nc(ncc1F)N2 (racemic) [Example 22, (rac)-16,20-difluoro-9-[(S-methylsulfonimidoyl)methyl]-2,3,4,5-tetrahydro-12H-17,13-(azeno)-11,7-(metheno)-6,1,12,14-benzoxathiadiazacyclononadecine]
